SMILES strings stand for the structures. Converted amounts (≈) assume the structure as drawn. The source made the active and inactive calls. No cut-off for these calls is given here.

17 compounds from ChEMBL document CHEMBL1133243, “Synthesis and antimicrobial activity of some isoindolin-1-ones derivatives” (2000) can be followed below.

In experiment [1] the test system is Bacteria. As to the kind of experiment: Antimicrobial activity against gram positive and gram negative bacteria; Active. The format is functional, organism-based.
Experiment [2] deals with Staphylococcus aureus. In words: Compound was evaluated for minimum inhibitory concentration against Staphylococcus aureus. The format is functional.
Experiment [3] deals with Bacillus subtilis. In words: Minimum inhibitory concentration against Bacillus subtilis. The format is functional.
For a further experiment, the system named is Pseudomonas aeruginosa. As to the kind of experiment: Minimum inhibitory concentration against Pseudomonas aeruginosa. The format is functional.
Experiment [4] is described as follows: Antimicrobial activity against aspergillus sp and Candida albicans; Inactive. The format is functional.
Another experiment relates to Kocuria rosea. As to the kind of experiment: Minimum inhibitory concentration against Micrococcus roseus. The format is functional.
The test system of the next experiment is Escherichia coli. As to the kind of experiment: Minimum inhibitory concentration against Escherichia coli. The class given is functional.
Experiment [5] concerns Bacteria. In words: Antimicrobial activity against gram positive and gram negative bacteria; Inactive. The class given is functional, organism-based.
For experiment [6], the system named is Staphylococcus aureus. In words: Minimum inhibitory concentration against Staphylococcus aureus. The class given is functional.
The subject of experiment [7] is Staphylococcus aureus. In words: Compound was evaluated for minimum inhibitory concentration against Staphylococcus aureus;Zero growth inhibition. The format is functional, organism-based.
Experiment [8] deals with Bacillus subtilis. In words: Compound was evaluated for minimum inhibitory concentration against Bacillus subtilis;Zero growth inhibition. The format is functional, organism-based.
Experiment [9] concerns Bacteria. In words: Compound tested for in vitro antimicrobial activity against gram positive and gram negative bacteria; Active. The format is functional, organism-based.

Turning to `O=C(O)[C@H](c1ccccc1)N1Cc2ccccc2C1=O`, the result in the experiment with Bacteria [1] was Active. The same compound displayed an Inhibition with Staphylococcus aureus [2] of 0%. The MIC is 529 µg/mL (≈ 1.98 mM) against Bacillus subtilis [3], 3600 µg/mL (≈ 13.5 mM) against Pseudomonas aeruginosa, 729 µg/mL (≈ 2.73 mM) against Kocuria rosea and 1620 µg/mL (≈ 6.06 mM) against Escherichia coli. The result in experiment [4] was inactive.

`CC(c1ccccc1)N1Cc2ccccc2C1=O` (stereo not drawn): the outcome (in the experiment with Bacteria [5]; in experiment [4]) was inactive.

With `O=C1c2ccccc2C2OCC(Cc3ccccc3)N12` (stereo not drawn), the outcome (in the experiment with Bacteria [5]; in experiment [4]) was inactive.

Turning to `CC(C)[C@H](C(=O)O)N1Cc2ccccc2C1=O`, the minimal inhibitory concentration (MIC) against Staphylococcus aureus [6] stood at 3600 µg/mL (≈ 15.4 mM); with Bacillus subtilis [3] it was 1620 µg/mL (≈ 6.94 mM); against Pseudomonas aeruginosa it was 3600 µg/mL (≈ 15.4 mM); in the experiment with Kocuria rosea, 1620 µg/mL (≈ 6.94 mM); against Escherichia coli, 3600 µg/mL (≈ 15.4 mM). The result in the experiment on Bacteria [1] was Active. The result in experiment [4] was inactive.

Regarding `O=C1c2ccccc2C(O)N1Cc1ccccc1` (stereo not drawn), the minimal inhibitory concentration (MIC) result is “Zero growth inhibition” against Staphylococcus aureus [7]; “Zero growth inhibition” against Bacillus subtilis [8]; 3600 µg/mL (≈ 15 mM) in the experiment on Pseudomonas aeruginosa; 1620 µg/mL (≈ 6.77 mM) in the experiment with Kocuria rosea; 2610 µg/mL (≈ 10.9 mM) in the experiment with Escherichia coli. The result in the experiment with Bacteria [1] was Active. Further, the result in experiment [4] was inactive.

`C[C@H](C(=O)O)N1Cc2ccccc2C1=O`: the minimum inhibitory concentration (MIC) stood at 1620 µg/mL (≈ 7.89 mM) against Staphylococcus aureus [6]; 328 µg/mL (≈ 1.6 mM) against Bacillus subtilis [3]; 3600 µg/mL (≈ 17.5 mM) against Pseudomonas aeruginosa; 2610 µg/mL (≈ 12.7 mM) in the experiment on Kocuria rosea; 3600 µg/mL (≈ 17.5 mM) in the experiment on Escherichia coli. Moreover, the result with Bacteria [9] was Active. In addition, the outcome in [4] was inactive.

Take `CCC(C)C(C(=O)O)N1Cc2ccccc2C1=O` (stereo not drawn): the MIC was determined as 3600 µg/mL (≈ 14.6 mM) with Staphylococcus aureus [6]; 729 µg/mL (≈ 2.95 mM) in the experiment on Bacillus subtilis [3]; 3600 µg/mL (≈ 14.6 mM) in the experiment on Pseudomonas aeruginosa; 1180 µg/mL (≈ 4.75 mM) against Kocuria rosea; 1620 µg/mL (≈ 6.55 mM) with Escherichia coli. The outcome with Bacteria [1] was Active. The outcome in [4] was inactive.

On to `O=C(O)C[C@@H](C(=O)O)N1Cc2ccccc2C1=O`, for which the MIC with Staphylococcus aureus [6] was 3600 µg/mL (≈ 14.4 mM); in the experiment on Bacillus subtilis [3] it was 147 µg/mL (≈ 0.59 mM); against Pseudomonas aeruginosa, 1620 µg/mL (≈ 6.5 mM); against Kocuria rosea, 2610 µg/mL (≈ 10.5 mM); in the experiment on Escherichia coli, 729 µg/mL (≈ 2.93 mM). Further, the outcome with Bacteria [1] was Active. The result in [4] was inactive.

As for `CC(C)CC(C(=O)O)N1Cc2ccccc2C1=O` (stereo not drawn), the minimum inhibitory concentration (MIC) stood at 3600 µg/mL (≈ 14.6 mM) in the experiment on Staphylococcus aureus [6]; 729 µg/mL (≈ 2.95 mM) in the experiment on Bacillus subtilis [3]; 3600 µg/mL (≈ 14.6 mM) against Pseudomonas aeruginosa; 3600 µg/mL (≈ 14.6 mM) in the experiment on Kocuria rosea; 3600 µg/mL (≈ 14.6 mM) in the experiment with Escherichia coli. Moreover, the outcome in the experiment on Bacteria [1] was Active. The result in experiment [4] was inactive.

Consider `CC(C)C1COC2c3ccccc3C(=O)N21` (stereo not drawn), for which, in the experiment with Bacteria [5], the result was inactive.

Consider `COc1ccc(N2Cc3ccccc3C2=O)cc1`, for which the outcome (with Bacteria [5]; in [4]) was inactive.

As for `O=C1c2ccccc2C2OCC(c3ccccc3)N12` (stereo not drawn), the result (in the experiment with Bacteria [5]; in experiment [4]) was inactive.

In the case of `O=C(O)[C@H](Cc1ccccc1)N1Cc2ccccc2C1=O`, the outcome with Bacteria [1] was Active. Further, the Inhibition in the experiment with Staphylococcus aureus [2] was found to be 0%. The MIC is 1180 µg/mL (≈ 4.18 mM) with Bacillus subtilis [3], 3600 µg/mL (≈ 12.8 mM) against Pseudomonas aeruginosa, 2610 µg/mL (≈ 9.28 mM) against Kocuria rosea and 3600 µg/mL (≈ 12.8 mM) in the experiment with Escherichia coli. Further, the outcome in [4] was inactive.

For `O=C(O)[C@H](CO)N1Cc2ccccc2C1=O`, the minimal inhibitory concentration (MIC) against Staphylococcus aureus [6] worked out at 3600 µg/mL (≈ 16.3 mM); against Bacillus subtilis [3], 729 µg/mL (≈ 3.3 mM); against Pseudomonas aeruginosa, 3600 µg/mL (≈ 16.3 mM); against Kocuria rosea it was 2610 µg/mL (≈ 11.8 mM); against Escherichia coli, 1620 µg/mL (≈ 7.32 mM). For the same compound, in the experiment on Bacteria [1], the outcome was Active. Moreover, the result in experiment [4] was inactive.

For the compound `C[C@@H](C(=O)O)N1Cc2ccccc2C1=O`, the MIC with Staphylococcus aureus [6] was found to be 1620 µg/mL (≈ 7.89 mM); against Bacillus subtilis [3] it was 729 µg/mL (≈ 3.55 mM); with Pseudomonas aeruginosa, 3600 µg/mL (≈ 17.5 mM); in the experiment with Kocuria rosea it was 1620 µg/mL (≈ 7.89 mM); with Escherichia coli, 1620 µg/mL (≈ 7.89 mM). The outcome with Bacteria [9] was Active. Also, the result in experiment [4] was inactive.

`Cc1ccc(N2Cc3ccccc3C2=O)cc1`: the result (in the experiment with Bacteria [5]; in [4]) was inactive.

For the compound `CC(C)[C@@H](C(=O)O)N1Cc2ccccc2C1=O`, the MIC with Staphylococcus aureus [6] came out at 3600 µg/mL (≈ 15.4 mM); in the experiment on Bacillus subtilis [3] it was 1620 µg/mL (≈ 6.94 mM); in the experiment on Pseudomonas aeruginosa, 3600 µg/mL (≈ 15.4 mM); against Kocuria rosea, 1620 µg/mL (≈ 6.94 mM); in the experiment with Escherichia coli, 1620 µg/mL (≈ 6.94 mM). Also, in the experiment on Bacteria [1], the outcome was Active. In experiment [4], the outcome was inactive.
